Assay results taken from US4963565A, “In vivo treatment of mycobacterial infections with 6-cyclo octylamino-5,8-quinoline quinone” (priority 1986, dated 1990).

What was measured:
M. intracellulare [1] = experiment: In vivo chemotherapeutic activity against M. intracellulare in the Beige mouse model (Example II); parameters: species or system M. intracellulare (host: Beige mice); details: 10 mg/kg daily orally; 1, 2 and 4 weeks (P 0.05), FIG. 2
[2] = system: M. intracellulare (571-8 strain); experiment: In vivo activity of different doses against acute M. intracellulare infections in Beige mice (Example III); parameters: species or system M. intracellulare (host: Beige mice)
M. intracellulare 571-8 = experiment: In vivo effectiveness against chronic M. intracellulare infections in C57Bl/6 mice (Examples IV and V); parameters: species or system M. intracellulare (host: C57Bl/6 mice)
M. intracellulare [3] = experiment: In vitro activity against serovars of M. intracellulare, radiometric (Bactec) method; assay type: cell-based
Method: A study of the effect of CQQ on different serovars of M. intracellulare in vitro was performed using the radiometric (Bactec) method. Maximum growth index (GI) of 999 was determined (for control models) in terms of the number of days necessary for the culture to reach this stage. GI is measured using the special instrument which reads the amount of ^14 C labelled CO2 liberated from the strains using the ^14 C labelled substrates.

M. tuberculosis H37 Rv = experiment: In vivo activity against M. tuberculosis infections in C57Bl/6 mice (Example VII); parameters: species or system M. tuberculosis (host: C57Bl/6 mice)
Method: Animal studies were performed using the mouse model. Mice are accepted as excellent experimental models for human mycobacterial diseases. While earlier literature (see review by Youmans etc.), have established C57Bl/6 mice models for in vivo studies with M. tuberculosis, mouse models for experimental M. intracellulare infections were difficult until recently (see review by Gangadharam). The Beige mouse (C57Bl/6/bg/bg) model established by Gangadharam et al is now used for studies with M. intracellulare. In the in vivo studies described below, C57Bl/6 and Beige mice models are used for M. tuberculosis and M. intracellulare infections, respectively.
In chemotherapy studies, various concentrations of CQQ and ansamycin (LM 427), were used. Lung and spleen tissue samples from the animal models were used. "CFU" refers to the "colony forming units" observed when culturing these samples.
In all of the following experiments, spleens and lungs were removed aseptically from the subject animals, at different periods of challenge. The organs were ground and samples of the ground organs were plated in aliquots on 7H11 agar medium. If the bacteria were present, they would grow, forming CFUs. The plates were incubated at 37° C. (with 5% CO2 for M. tuberculosis), and read after three weeks incubation.
CFUs were counted by visual enumeration. If increased magnification was necessary, this was done using a plate microscope.
In this experiment C57Bl/6 mice were infected intravenously with M. tuberculosis H37 Rv strain and one group was treated daily orally with 10 mg/kg of CQQ and the others as untreated infected control.

Mycobacterium leprae = experiment: Inhibitory activity against Mycobacterium leprae in the macrophage model (3H thymidine uptake); assay type: cell-based, M. leprae (in human monocyte derived macrophages); parameters: Inhibition of 3H thymidine uptake: dose or concentration left out as unconfirmed
Text: The effect of CQQ on Mycobacterium leprae, the causative agent for leprosy, was studied using monocyte derived macrophages obtained from human volunteers.
Blood from a healthy volunteer was drawn and monocytes were removed and cultured to the macrophage stage. This required about 7 days. The macrophages were then exposed to M. leprae bacilli obtained from biopsy specimens of leprosy patients. One sample was exposed to CQQ, while other samples were exposed to DDS (diaminodiphenyl sulphone), the standard antileprosy drug, or rifampin, at various concentrations. Macrophages were exposed to radiolabelled tritium (^3 H) labeled thymidine, and its uptake was measured using a liquid scintillation counter. A control model of M. leprae exposed macrophages, which was not treated was used as well. The uptake of thymidine is a measure of antimycobacterial activity.

M. intracellulare [4] = details: Gangadharam et al.; cited from earlier work
[5] = 8.0 mcg/ml, serovar 3, strain 7-17
[6] = 8.0 mcg/ml, serovar 3, strain 9-75
[7] = 8.0 mcg/ml, serovar 3, strain 12-1
[8] = 8.0 mcg/ml, serovar 3, strain 971-8
[9] = 8.0 mcg/ml, serovar 4, strain 5-13
[10] = 8.0 mcg/ml, serovar 4, strain 7-55
[11] = 8.0 mcg/ml, serovar 4, strain 8-50
[12] = 8.0 mcg/ml, serovar 4, strain TMC1463
[13] = 8.0 mcg/ml, serovar 9, strain 2-10
[14] = 8.0 mcg/ml, serovar 9, strain 6-38
[15] = 8.0 mcg/ml, serovar 9, strain 7-25
[16] = 8.0 mcg/ml, serovar 9, strain 1784-286
[17] = 8.0 mcg/ml, serovar 14, strain 7-3
[18] = 8.0 mcg/ml, serovar 14, strain 7-43
[19] = 8.0 mcg/ml, serovar 14, strain BOONE
[20] = 8.0 mcg/ml, serovar 14, strain P-39
[21] = 16.0 mcg/ml, serovar 3, strain 7-17
[22] = 16.0 mcg/ml, serovar 3, strain 9-75
[23] = 16.0 mcg/ml, serovar 3, strain 12-1
[24] = 16.0 mcg/ml, serovar 3, strain 971-8
[25] = 16.0 mcg/ml, serovar 4, strain 5-13
[26] = 16.0 mcg/ml, serovar 4, strain 7-55
[27] = 16.0 mcg/ml, serovar 4, strain 8-50
[28] = 16.0 mcg/ml, serovar 4, strain TMC1463
[29] = 16.0 mcg/ml, serovar 9, strain 2-10
[30] = 16.0 mcg/ml, serovar 9, strain 6-38
[31] = 16.0 mcg/ml, serovar 9, strain 7-25
[32] = 16.0 mcg/ml, serovar 9, strain 1784-286
[33] = 16.0 mcg/ml, serovar 14, strain 7-3
[34] = 16.0 mcg/ml, serovar 14, strain 7-43
[35] = 16.0 mcg/ml, serovar 14, strain BOONE
[36] = 16.0 mcg/ml, serovar 14, strain P-39

O=C1C(NC2CCCCCCC2)=CC(=O)c2ncccc21 [CQQ, 6-cyclo octylamino-5,8-quinoline quinone]
Antimycobacterial activity, CFU counts from spleen and lungs vs controls (M. intracellulare [1]): considerable antimycobactgerial activity with statistically significant differences | Dose comparison, 20 vs 10 mg/kg ([2]; 20 mg/kg vs 10 mg/kg): The dose of 20 mg/kg is better than 10 mg/kg dose | Inhibitory activity, reduction of CFU counts from spleens and lungs ([2]; 10 or 20 mg/kg, FIGS. 3 and 4): considerable inhibitory activity | Duration of statistically significant differences in CFU counts ([2]; 10 or 20 mg/kg, spleens and lungs (P 0.05)): up to 6 weeks | Effect in lung vs spleen ([2]; FIG. 4 vs FIG. 3): more pronounced in the lung (FIG. 4) than in the spleen | Duration of statistically significant difference vs control (M. intracellulare 571-8; Example IV, 10 mg/kg (P 0.05)): up to 3 weeks | Reduction in CFU counts in spleen and lungs vs untreated control (M. intracellulare 571-8; Example IV, 10 mg/kg, followed for 28 days, FIG. 5): considerable reduction in CFU counts both in spleen and lungs | In vivo antimycobacterial activity in the chronic infection (M. intracellulare 571-8; Example V, FIG. 6): considerable in vivo antimycobacterial activity | Day maximum GI achieved (M. intracellulare [3]; [5]): 2 days | Maximum GI (M. intracellulare [3]; [5]): 16 | Day maximum GI achieved (M. intracellulare [3]; [6]): 2 days | Maximum GI (M. intracellulare [3]; [6]): 22 | Day maximum GI achieved (M. intracellulare [3]; [7]): 2 days | Maximum GI (M. intracellulare [3]; [7]): 4 | Day maximum GI achieved (M. intracellulare [3]; [8]): 3 days | Maximum GI (M. intracellulare [3]; [8]): 20 | Day maximum GI achieved (M. intracellulare [3]; [9]): 1 days | Maximum GI (M. intracellulare [3]; [9]): 14 | Day maximum GI achieved (M. intracellulare [3]; [10]): 2 days | Maximum GI (M. intracellulare [3]; [10]): 7 | Day maximum GI achieved (M. intracellulare [3]; [11]): 2 days | Maximum GI (M. intracellulare [3]; [11]): 15 | Day maximum GI achieved (M. intracellulare [3]; [12]): 1 days | Maximum GI (M. intracellulare [3]; [12]): 6 | Day maximum GI achieved (M. intracellulare [3]; [13]): 1 days | Maximum GI (M. intracellulare [3]; [13]): 14 | Day maximum GI achieved (M. intracellulare [3]; [14]): 1 days | Maximum GI (M. intracellulare [3]; [14]): 13 | Day maximum GI achieved (M. intracellulare [3]; [15]): 4 days | Maximum GI (M. intracellulare [3]; [15]): 33 | Day maximum GI achieved (M. intracellulare [3]; [16]): 1 days | Maximum GI (M. intracellulare [3]; [16]): 9 | Day maximum GI achieved (M. intracellulare [3]; [17]): 2 days | Maximum GI (M. intracellulare [3]; [17]): 5 | Day maximum GI achieved (M. intracellulare [3]; [18]): 1 days | Maximum GI (M. intracellulare [3]; [18]): 1 | Day maximum GI achieved (M. intracellulare [3]; [19]): 1 days | Maximum GI (M. intracellulare [3]; [19]): 13 | Day maximum GI achieved (M. intracellulare [3]; [20]): 1 days | Maximum GI (M. intracellulare [3]; [20]): 21 | Inhibition of the strains (M. intracellulare [3]; 16.0 and 8.0 mcg/ml): Complete inhibition | Day maximum GI achieved (M. intracellulare [3]; [21]): 1 days | Maximum GI (M. intracellulare [3]; [21]): 5 | Day maximum GI achieved (M. intracellulare [3]; [22]): 1 days | Maximum GI (M. intracellulare [3]; [22]): 14 | Day maximum GI achieved (M. intracellulare [3]; [23]): 2 days | Maximum GI (M. intracellulare [3]; [23]): 6 | Day maximum GI achieved (M. intracellulare [3]; [24]): 1 days | Maximum GI (M. intracellulare [3]; [24]): 8 | Day maximum GI achieved (M. intracellulare [3]; [25]): 1 days | Maximum GI (M. intracellulare [3]; [25]): 4 | Day maximum GI achieved (M. intracellulare [3]; [26]): 2 days | Maximum GI (M. intracellulare [3]; [26]): 4 | Day maximum GI achieved (M. intracellulare [3]; [27]): 1 days | Maximum GI (M. intracellulare [3]; [27]): 6 | Day maximum GI achieved (M. intracellulare [3]; [28]): 1 days | Maximum GI (M. intracellulare [3]; [28]): 5 | Day maximum GI achieved (M. intracellulare [3]; [29]): 1 days | Maximum GI (M. intracellulare [3]; [29]): 12 | Day maximum GI achieved (M. intracellulare [3]; [30]): 1 days | Maximum GI (M. intracellulare [3]; [30]): 6 | Day maximum GI achieved (M. intracellulare [3]; [31]): 1 days | Maximum GI (M. intracellulare [3]; [31]): 7 | Day maximum GI achieved (M. intracellulare [3]; [32]): 1 days | Maximum GI (M. intracellulare [3]; [32]): 5 | Day maximum GI achieved (M. intracellulare [3]; [33]): 1 days | Maximum GI (M. intracellulare [3]; [33]): 4 | Day maximum GI achieved (M. intracellulare [3]; [34]): 1 days | Maximum GI (M. intracellulare [3]; [34]): 9 | Day maximum GI achieved (M. intracellulare [3]; [35]): 1 days | Maximum GI (M. intracellulare [3]; [35]): 7 | Day maximum GI achieved (M. intracellulare [3]; [36]): 1 days | Maximum GI (M. intracellulare [3]; [36]): 22 | Effect on GI rates of all M. intracellulare strains (M. intracellulare [3]; both concentrations (16.0 and 8.0 mcg/ml)): dramatic decrease in GI rates for all M. intracellulare strains | Mean CFU counts from spleens and lungs vs untreated controls (M. tuberculosis H37 Rv; 10 mg/kg daily orally, end of 4 weeks): considerable reduction | Mean colony forming unit (CFU) count, lung (M. tuberculosis H37 Rv; 10 mg/kg daily orally, end of 4 weeks, control 6.42): 4.21 LOG CFU | Mean colony forming unit (CFU) count, spleen (M. tuberculosis H37 Rv; 10 mg/kg daily orally, end of 4 weeks, control 6.90): 4.90 LOG CFU | Antituberculosis effectiveness (M. tuberculosis H37 Rv; conclusion from Table 2): clearly an effective antituberculosis agent | Counts per minute (3H thymidine uptake) (Mycobacterium leprae; Sample I, 5 NG/ML): 2.4 COUNTS PER MINUTE | Counts per minute (3H thymidine uptake) (Mycobacterium leprae; Sample I, 25 NG/ML): 93 COUNTS PER MINUTE | Counts per minute (3H thymidine uptake) (Mycobacterium leprae; Sample I, 50 NG/ML): 93 COUNTS PER MINUTE | Counts per minute (3H thymidine uptake) (Mycobacterium leprae; Sample I, 100 NG/ML): 84 COUNTS PER MINUTE | Counts per minute (3H thymidine uptake) (Mycobacterium leprae; Sample I, CQQ 10 NG/ML): 2.3 COUNTS PER MINUTE | Counts per minute (3H thymidine uptake) (Mycobacterium leprae; Sample II, 5 NG/ML): 6 COUNTS PER MINUTE | Counts per minute (3H thymidine uptake) (Mycobacterium leprae; Sample II, 25 NG/ML): 69 COUNTS PER MINUTE | Counts per minute (3H thymidine uptake) (Mycobacterium leprae; Sample II, 50 NG/ML): 76 COUNTS PER MINUTE | Counts per minute (3H thymidine uptake) (Mycobacterium leprae; Sample II, 100 NG/ML): 76 COUNTS PER MINUTE | Counts per minute (3H thymidine uptake) (Mycobacterium leprae; Sample II, 200 NG/ML): 91 COUNTS PER MINUTE | Counts per minute (3H thymidine uptake) (Mycobacterium leprae; Sample II, CQQ 10 NG/ML): 13 COUNTS PER MINUTE | Counts per minute (3H thymidine uptake) (Mycobacterium leprae; Sample III, 5 NG/ML): 2 COUNTS PER MINUTE | Counts per minute (3H thymidine uptake) (Mycobacterium leprae; Sample III, 25 NG/ML): 37 COUNTS PER MINUTE | Counts per minute (3H thymidine uptake) (Mycobacterium leprae; Sample III, CQQ 10 NG/ML): 2 COUNTS PER MINUTE | Activity with another strain of M. leprae (Mycobacterium leprae; another strain): even greater activity | Antileprosy activity (Mycobacterium leprae; conclusion from Table 3): considerable antileprosy activity | Inhibition of 3H thymidine uptake (Mycobacterium leprae; two strains of M. leprae): significant inhibition | In vitro effectiveness against M. intracellulare (M. intracellulare [4]): effective against M. intracellulare and M. tuberculosis in vitro
